According to patent US8609669B2, “Potassium channel modulators” (AbbVie Inc., priority 2010, dated 2013):

Molecular target: T1, KCNQ 2/3 channels (HEK293 cells stably expressing human KCNQ2 and KCNQ3 subunits) (Homo sapiens, UniProt O43525+O43526)
T1 construct: expressed in transfected cells; host or cells: HEK293
Assay: KCNQ2/3 channel activation, thallium flux FLIPR assay (BTC-AM dye)
Type: cell-based
Settings: for Emax: HEK293, maximum response relative to response of retigabine at 10 μM (set at 100%), read-out: Max. %; for EC50: HEK293 cells expressing human KCNQ2 and KCNQ3, FLIPR thallium flux
Description: The following example describes the assay that can be used to identify compounds that activate KCNQ 2/3 channels.
HEK293 cells stably expressing human KCNQ2 and KCNQ3 subunits were seeded in 96-well, black-walled, clear-bottomed, poly-D-lysine coated plates (BD Biosciences, Bedford, Mass.) at a density of 1×10^5 cells per well 24 hours before the assay. On the assay day, BTC-AM dye (Invitrogen, Carlsbad, Calif.) was loaded into the cells by replacing the cell culture medium with 100 μL/well of 4 μM dye in DPBS. Dye loading was allowed to proceed for 2 hours at room temperature and then cells were washed twice in 100 μL/well of assay buffer (in mM: 10 HEPES pH 7.3, 5 glucose, 140 Na-gluconate, 2.5 K-gluconate, 3.6 Ca-gluconate, 2 MgSO4, 0.1 Ouabain) to remove unloaded dye. Cells were incubated in 50 μL of assay buffer before loading onto a FLIPR system (Molecular Devices, Sunnyvale, Calif.). Various concentrations of compounds to be assayed were added to the cells in 50 μL of assay buffer and incubated for 4 minutes. The fluorescence signal was initiated by adding 100 μL of assay buffer containing 6 mM TlNO3 and 10 mM K2SO4. Fluors were excited using the 488-nm line of an argon laser and emission was filtered using a 540±30 nm bandpass filter. Fluorescent signals were recorded for 3 minutes. Responses over baseline values were plotted versus concentrations of test compounds to obtain an EC50 value. The maximum response for each test compound was determined relative to the response produced at 10 μM by retigabine. The maximum response of retigabine at 10 μM was set at 100%.

COc1ccc(CC(=O)Nc2nn3cccnc3c2C(C)(C)C)cc1 [Example 155, N-(3-tert-butylpyrazolo[1,5-a]pyrimidin-2-yl)-2-(4-methoxyphenyl)acetamide]
Emax: 116%
EC50: 1000 to 10000 nM

Cc1cnc2c(C(C)(C)C)c(NC(=O)CCC3CCCC3)nn2c1 [Example 179, N-(3-tert-butyl-6-methylpyrazolo[1,5-a]pyrimidin-2-yl)-3-cyclopentylpropanamide]
Emax: 151%
EC50: < 100 nM

CC(C)c1c(NC(=O)CCC2CCCC2)nn2cccnc12 [Example 112, 3-cyclopentyl-N-(3-isopropylpyrazolo[1,5-a]pyrimidin-2-yl)propanamide]
Emax: 135%
EC50: 500 to 1000 nM

Cc1cc(C)n2nc(NC(=O)CCC3CC3)c(-c3ccc(Cl)c(C)c3)c2n1 [Example 114, N-[3-(4-chloro-3-methylphenyl)-5,7-dimethylpyrazolo[1,5-a]pyrimidin-2-yl]-3-cyclopropylpropanamide]
Emax: 119%
EC50: 100 to 500 nM

CC(C)(C)c1c(NC(=O)Cc2cc(F)cc(F)c2)nn2cccnc12 [Example 127, N-(3-tert-butylpyrazolo[1,5-a]pyrimidin-2-yl)-2-(3,5-difluorophenyl)acetamide]
Emax: 147%
EC50: 100 to 500 nM

Cc1cnc2c(-c3ccc(C(F)(F)F)c(F)c3)c(NC(=O)CC3CCCC3)nn2c1 [Example 87, 2-cyclopentyl-N-{3-[3-fluoro-4-(trifluoromethyl)phenyl]-6-methylpyrazolo[1,5-a]pyrimidin-2-yl}acetamide]
Emax: 239%
EC50: 100 to 500 nM

CC(C)(CC(=O)Nc1nn2cccnc2c1-c1ccc(Cl)cc1)c1ccccc1 [Example 117, N-[3-(4-chlorophenyl)pyrazolo[1,5-a]pyrimidin-2-yl]-3-methyl-3-phenylbutanamide]
Emax: 64%
EC50: > 10000 nM

Cc1cc(C)n2nc(NC(=O)CCC3CCCCC3)c(-c3ccc(Cl)c(C)c3)c2n1 [Example 48, N-[3-(4-chloro-3-methylphenyl)-5,7-dimethylpyrazolo[1,5-a]pyrimidin-2-yl]-3-cyclohexylpropanamide]
Emax: 68%
EC50: 1000 to 10000 nM

Cc1cnc2c(-c3cccc(C(F)(F)F)c3)c(NC(=O)CC(C)(C)C)nn2c1 [Example 63, 3,3-dimethyl-N-{6-methyl-3-[3-(trifluoromethyl)phenyl]pyrazolo[1,5-a]pyrimidin-2-yl}butanamide]
Emax: 125%
EC50: 100 to 500 nM

Cc1cnc2c(-c3cccc(F)c3)c(NC(=O)Cc3ccc(F)cc3)nn2c1 [Example 84, 2-(4-fluorophenyl)-N-[3-(3-fluorophenyl)-6-methylpyrazolo[1,5-a]pyrimidin-2-yl]acetamide]
Emax: 132%
EC50: 100 to 500 nM

Cc1ccnc2c(-c3ccc(OC(F)(F)F)cc3)c(NC(=O)CC(C)(C)c3ccccc3)nn12 [Example 159, 3-methyl-N-{7-methyl-3-[4-(trifluoromethoxy)phenyl]pyrazolo[1,5-a]pyrimidin-2-yl}-3-phenylbutanamide]
Emax: 136%
EC50: 500 to 1000 nM

CC(C)(C)c1c(NC(=O)CC2CCC3CC23)nn2cccnc12 (stereo not drawn) [Example 175, 2-[(cis)-bicyclo[3.1.0]hex-2-yl]-N-(3-tert-butylpyrazolo[1,5-a]pyrimidin-2-yl)acetamide]
Emax: 177%
EC50: 1000 to 10000 nM

Cc1cc(C)n2nc(NC(=O)CCc3ccccc3)c(-c3ccc(Cl)c(C)c3)c2n1 [Example 47, N-[3-(4-chloro-3-methylphenyl)-5,7-dimethylpyrazolo[1,5-a]pyrimidin-2-yl]-3-phenylpropanamide]
Emax: 125%
EC50: 100 to 500 nM

Cc1ccnc2c(-c3ccc(OC(F)(F)F)cc3)c(NC(=O)CC3CC4CCC3C4)nn12 (racemic) [Example 160, (±)-exo-2-bicyclo[2.2.1]hept-2-yl-N-{7-methyl-3-[4-(trifluoromethoxy)phenyl]pyrazolo[1,5-a]pyrimidin-2-yl}acetamide]
Emax: 148%
EC50: < 100 nM
